PMC10700596 (Nature Communications, 2023)
“And” between values parts separate entries of the source, which are not always exact repeats. Equal values may be shown once. Read-outs that look alike come from different tables or passages of the source.

Columns and labels:
in vivo = format: in vivo, mice; details: plasma, mice, plasma; for Final plasma concentration, individual sample: IP 10 mg/kg, single animal, D=1
mice = format: in vivo; details: absence of injury

SMILES: O=C([O-])C1CCC2(CC1)CC(Nc1ncnc3[nH]c4c(F)cccc4c13)C2.[Na+] (stereo not drawn) [Compound 77, [Na+].[O-]C(=O)C1CCC2(CC(C2)NC=3N=CN=C4NC=5C(F)=CC=CC5C34)CC1]
- concentration at 15 min (in vivo; male, CD-1, mouse, po, 30 mg/kg, PO 30 mg/kg, 15 min, read-out: Plasma concentration C (mean)): 24200 ng/mL
- concentration at 30 min (in vivo; male, CD-1, mouse, po, 30 mg/kg, PO 30 mg/kg, 30 min, single animals, read-out: Plasma concentration, Final (individual mouse)): 23000 ng/mL
- concentration at 30 min (in vivo; male, CD-1, mouse, po, 30 mg/kg, PO 30 mg/kg, 30 min, read-out: Plasma concentration C (mean)): 21700 ng/mL
- concentration at 60 min (in vivo; male, CD-1, mouse, po, 30 mg/kg, PO 30 mg/kg, 60 min, single animals, read-out: Plasma concentration, Final (individual mouse)): 24400 ng/mL
- concentration at 60 min (in vivo; male, CD-1, mouse, po, 30 mg/kg, PO 30 mg/kg, 60 min, read-out: Plasma concentration C (mean)): 19600 ng/mL
- concentration at 120 min (in vivo; male, CD-1, mouse, po, 30 mg/kg, PO 30 mg/kg, 120 min, single animals, read-out: Plasma concentration, Final (individual mouse)): 11600 ng/mL
- concentration at 120 min (in vivo; male, CD-1, mouse, po, 30 mg/kg, PO 30 mg/kg, 120 min, read-out: Plasma concentration C (mean)): 9140 ng/mL
- concentration at 240 min (in vivo; male, CD-1, mouse, po, 30 mg/kg, PO 30 mg/kg, 240 min, single animals, read-out: Plasma concentration, Final (individual mouse)): 5200 ng/mL
- concentration at 240 min (in vivo; male, CD-1, mouse, po, 30 mg/kg, PO 30 mg/kg, 240 min, read-out: Plasma concentration C (mean)): 3600 ng/mL
- concentration at 360 min (in vivo; male, CD-1, mouse, po, 30 mg/kg, PO 30 mg/kg, 360 min, single animals, read-out: Plasma concentration, Final (individual mouse)): 4400 ng/mL
- concentration at 360 min (in vivo; male, CD-1, mouse, po, 30 mg/kg, PO 30 mg/kg, 360 min, read-out: Plasma concentration C (mean)): 4510 ng/mL
- concentration at 480 min (in vivo; male, CD-1, mouse, po, 30 mg/kg, PO 30 mg/kg, 480 min, read-out: Plasma concentration C (mean)): 5240 ng/mL
- concentration at 1440 min (in vivo; male, CD-1, mouse, po, 30 mg/kg, PO 30 mg/kg, 1440 min, read-out: Plasma concentration C (mean)): 187 ng/mL
- AUC (in vivo; male, CD-1, mouse, po, 30 mg/kg p.o., read-out: AUC (converted)): 108 µg·h/mL
- Final plasma concentration, individual sample (in vivo; 5 min, listed as Z5090949977, 10 mg/kg): 2415 ng/mL and 2458 ng/mL
- Final plasma concentration, individual sample (in vivo; 15 min, listed as Z5090949977, 10 mg/kg): 7952 ng/mL and 6935 ng/mL
- Final plasma concentration, individual sample (in vivo; 30 min, listed as Z5090949977, 10 mg/kg): 4477 ng/mL and 7535 ng/mL
- Final plasma concentration, individual sample (in vivo; 60 min, listed as Z5090949977, 10 mg/kg): 9306 ng/mL and 9568 ng/mL
- Final plasma concentration, individual sample (in vivo; 120 min, listed as Z5090949977, 10 mg/kg): 9975 ng/mL and 654 ng/mL and 8498 ng/mL
- Final plasma concentration, individual sample (in vivo; 240 min, listed as Z5090949977, 10 mg/kg): 3566 ng/mL and 4977 ng/mL and 2222 ng/mL
- Final plasma concentration, individual sample (in vivo; 360 min, listed as Z5090949977, 10 mg/kg): 2567 ng/mL and 1708 ng/mL
- Final plasma concentration, individual sample (in vivo; 480 min, listed as Z5090949977, 10 mg/kg): 872 ng/mL and 500 ng/mL
- Final plasma concentration, individual sample (in vivo; 1440 min, listed as Z5090949977, 10 mg/kg): 13.6 ng/mL and 18.4 ng/mL
- Plasma concentration, Final (individual mouse) (in vivo; IV 10 mg/kg, 5 min, single animals, listed as Z5090949977, 10 mg/kg): 28260 ng/mL and 26240 ng/mL
- Plasma concentration, Final (individual mouse) (in vivo; IV 10 mg/kg, 15 min, single animals, listed as Z5090949977, 10 mg/kg): 16140 ng/mL and 20380 ng/mL
- Plasma concentration, Final (individual mouse) (in vivo; IV 10 mg/kg, 30 min, single animals, listed as Z5090949977, 10 mg/kg): 14230 ng/mL and 12830 ng/mL
- Plasma concentration, Final (individual mouse) (in vivo; IV 10 mg/kg, 60 min, single animals, listed as Z5090949977, 10 mg/kg): 8422 ng/mL and 12040 ng/mL
- Plasma concentration, Final (individual mouse) (in vivo; IV 10 mg/kg, 120 min, single animals, listed as Z5090949977, 10 mg/kg): 4081 ng/mL and 3418 ng/mL
- Plasma concentration, Final (individual mouse) (in vivo; IV 10 mg/kg, 240 min, single animals, listed as Z5090949977, 10 mg/kg): 2055 ng/mL and 1818 ng/mL
- Plasma concentration, Final (individual mouse) (in vivo; IV 10 mg/kg, 360 min, single animals, listed as Z5090949977, 10 mg/kg): 2041 ng/mL and 1884 ng/mL
- Plasma concentration, Final (individual mouse) (in vivo; IV 10 mg/kg, 480 min, single animals, listed as Z5090949977, 10 mg/kg): 829 ng/mL and 1219 ng/mL and 1675 ng/mL
- Plasma concentration, Final (individual mouse) (in vivo; IV 10 mg/kg, 1440 min, single animals, listed as Z5090949977, 10 mg/kg): 31.5 ng/mL and 13.7 ng/mL and 84.5 ng/mL
- Plasma concentration, Final (individual mouse) (in vivo; PO 30 mg/kg, 5 min, single animals, listed as Z5090949977, 30 mg/kg): 2091 ng/mL and 7833 ng/mL and 3112 ng/mL
- Plasma concentration, Final (individual mouse) (in vivo; PO 30 mg/kg, 15 min, single animals, listed as Z5090949977, 30 mg/kg): 23680 ng/mL and 31270 ng/mL
- Plasma concentration, Final (individual mouse) (in vivo; PO 30 mg/kg, 30 min, single animals, listed as Z5090949977, 30 mg/kg): 18100 ng/mL and 24020 ng/mL
- Plasma concentration, Final (individual mouse) (in vivo; PO 30 mg/kg, 60 min, single animals, listed as Z5090949977, 30 mg/kg): 14280 ng/mL and 20060 ng/mL
- Plasma concentration, Final (individual mouse) (in vivo; PO 30 mg/kg, 120 min, single animals, listed as Z5090949977, 30 mg/kg): 8277 ng/mL and 7588 ng/mL
- Plasma concentration, Final (individual mouse) (in vivo; PO 30 mg/kg, 240 min, single animals, listed as Z5090949977, 30 mg/kg): 2686 ng/mL and 2897 ng/mL
- Plasma concentration, Final (individual mouse) (in vivo; PO 30 mg/kg, 360 min, single animals, listed as Z5090949977, 30 mg/kg): 3917 ng/mL and 5212 ng/mL
- Plasma concentration, Final (individual mouse) (in vivo; PO 30 mg/kg, 480 min, single animals, listed as Z5090949977, 30 mg/kg): 8465 ng/mL and 5117 ng/mL and 2129 ng/mL
- Plasma concentration, Final (individual mouse) (in vivo; PO 30 mg/kg, 1440 min, single animals, listed as Z5090949977, 30 mg/kg): 154 ng/mL and 78.9 ng/mL and 329 ng/mL
- effect on baseline mechanical thresholds (mice): no effect
